Paper PMC8151276, “An Integrated Approach toward NanoBRET Tracers for Analysis of GPCR Ligand Engagement” (Molecules, 2021)

Target: T1, OPRM1 (Homo sapiens, UniProt P35372)
T1 construct: purchased Promega (in-house HiBiT-GPCR construct library, NanoBRET)
Test: NanoBRET screen HiBiT-OPRM1 in HEK293
Type: binding
Description: Each tracer candidate was screened across the entire library of HiBiT-GPCR constructs using NanoBRET as the detection modality. As depicted in Figure 4A, the specificity of interactions was evaluated through decrease in BRET due to competitive displacement of a bound tracer by excess parental compound. Each tracer was analyzed for binding to each HiBiT-GPCR fusion in the absence and in the presence of competing parental compound. Briefly, HEK293 cells were transfected with HiBiT-GPCR constructs diluted into promoterless DNA to reduce expression and maximize translocation to the cell surface. Each tracer candidate was then screened at concentrations of 1 μM and 0.1 μM across cells expressing these fusions. Cells were treated for 1.5 h with tracer either alone or in the presence of 20 μM competing parental compound (i.e., control). BRET was measured upon addition of purified LgBiT and subsequent complementation with HiBiT genetically fused to a GPCR. The specificity of interactions was assessed through a decrease in BRET signal due to competitive displacement of the bound tracer. To further gauge the robustness of these interactions, the fold response over the control (i.e., BRETtracer/BRETcontrol) was calculated. We chose a 1.5-fold response, which translates to ≥7-fold signal over noise as the minimal threshold required to score an interaction as positive.
HiBiT-GPCR DNA constructs were diluted in 10 mM Tris pH 8 to a final concentration of 0.01 μg/μL, arrayed in 96-well plates and stored at −20 °C. For transfection, HEK293 cells were suspended in Opti-MEM (without phenol red) supplemented with 2% fetal bovine serum (Seradigm) and 100 units/mL penicillin–streptomycin (Gibco) at a final concentration of 220,000 cells/mL and dispensed into white 96-well plates at 90 μL/well. Subsequent transfections and screens were carried using an Agilent Bravo Automated Liquid Handling Platform. First, the 96-well HiBiT DNA arrays were diluted 25-fold in Opti-MEM (without serum or phenol red) to a final concentration of 0.0004 μg/μL and 20 μL of the diluted DNAs were transferred into new 96-well plates. Next, promoterless carrier DNA (1 μg/μL) was diluted 25-fold (0.04 μg/μL) and then dispensed into the diluted arrays at 20 μL/well. Following brief mixing, Viafect transfection reagent (Promega) diluted 16-fold into Opti-MEM was dispensed into the plates at 40 μL/well. After mixing by pipetting, plates were incubated for 10 min on the pipetting station deck. The DNA-transfection reagent complexes were then added to plates containing cells. To facilitate the screen, 10 μL of DNA-transfection reagent complexes were added in duplicates to the top 4 and bottom 4 rows, resulting in two identical 48-well arrays per plate. Plates with transfected cells were incubated for 18–20 h at 37 °C/5% CO2. A screen of each tracer across the entire library using two different concentrations requires duplicate plates of transfected cells. Depending on the number of tracers being screened, transfections can be scaled up using the same ratios. The next day, for each tracer, four 20× screening solutions in tracer dilution buffer (Promega) were prepared: two duplicates at final concentration of 20 μM and two duplicates at a final concentration of 2 μM. […] The four resulting solutions were diluted 4-fold in Opti-MEM without serum or phenol red to generate 5× solutions (5 µM and 0.5 µM tracer +/− 100 μM competing compound). To screen the library, a BioTek MultiFlo FX liquid dispenser was used to dispense 22.5 µL of tracer solution to the top 4 rows and 22.5 µL tracer + competing compound solution to the 4 bottom rows. Plates were briefly mixed on an orbital shaker and incubated for 1.5 h at room temperature. […] Plates were briefly mixed on an orbital shaker and incubated for 15 min to allow complementation.

T1 sequence (P35372 whole entry): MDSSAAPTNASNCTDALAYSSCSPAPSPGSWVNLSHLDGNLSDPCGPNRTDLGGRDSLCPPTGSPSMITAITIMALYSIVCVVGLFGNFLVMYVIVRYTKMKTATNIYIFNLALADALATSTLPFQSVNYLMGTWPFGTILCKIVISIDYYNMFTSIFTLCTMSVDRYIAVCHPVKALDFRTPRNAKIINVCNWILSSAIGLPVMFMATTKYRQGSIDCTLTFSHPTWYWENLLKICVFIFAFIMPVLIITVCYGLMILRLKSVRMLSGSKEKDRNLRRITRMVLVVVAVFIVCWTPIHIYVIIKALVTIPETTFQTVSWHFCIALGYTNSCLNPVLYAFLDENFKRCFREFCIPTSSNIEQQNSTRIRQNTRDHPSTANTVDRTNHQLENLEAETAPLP

Compound: CN1CCN(C2=Nc3cc(Cl)ccc3Nc3ccc(CNC(=O)CCOCCOCCOCCOCCNC(=O)CCc4ccc5n4[B-](F)(F)[N+]4=C(c6ccc[nH]6)C=CC4=C5)cc32)CC1 [Clozapine-b-2-NB590]
- NanoBRET Fold Response (OPRM1, 0.1μM tracer): 0.96
- NanoBRET Fold Response (OPRM1, 1μM tracer): 0.86

Compound: CN(C)CCC=C1c2ccccc2CCc2ccc(C(=O)NCCNC(=O)CCOCCOCCOCCOCCNC(=O)CCc3ccc4n3[B-](F)(F)[N+]3=C(c5ccc[nH]5)C=CC3=C4)cc21 [Amitriptyline-b-2-NB590]
- NanoBRET Fold Response (tracer at 0.1μM, listed as amitriptyline-b-2-NB590): 0.87
- NanoBRET Fold Response (tracer at 1μM, listed as amitriptyline-b-2-NB590): 0.87

Compound: CCOC(=O)c1cc(C#N)c(N2CCC(C(=O)NS(=O)(=O)Cc3ccccc3/C=C/C(=O)NCCNC(=O)CCc3ccc4n3[B-](F)(F)[N+]3=C(c5ccc[nH]5)C=CC3=C4)CC2)nc1C [AZD1283-1-NB590]
- NanoBRET Fold Response (OPRM1, 0.1μM): 1.07
- NanoBRET Fold Response (OPRM1, 1μM): 0.95

Compound: CC(C)N(CC[C@H](c1ccccc1)c1cc(CCNC(=O)CCOCCOCCOCCOCCNC(=O)CCc2ccc3n2[B-](F)(F)[N+]2=C(c4ccc[nH]4)C=CC2=C3)ccc1O)C(C)C [Tolterodine-2-NB590]
- NanoBRET Fold Response (OPRM1, tracer 0.1μM): 1.23
- NanoBRET Fold Response (OPRM1, tracer 1μM): 1.10

Compound: CC(C)N(CC[C@H](c1ccccc1)c1cc(CCNC(=O)c2ccc(CNC(=O)CCc3ccc4n3[B-](F)(F)[N+]3=C(c5ccc[nH]5)C=CC3=C4)cc2)ccc1O)C(C)C [Tolterodine-BZ-NB590]
- NanoBRET Fold Response (OPRM1, tracer 0.1μM): 0.95
- NanoBRET Fold Response (OPRM1, tracer 1μM): 0.93

Compound: O=C(CCOCCOCCOCCOCCNC(=O)CCc1ccc2n1[B-](F)(F)[N+]1=C(c3ccc[nH]3)C=CC1=C2)NCCCN1CCN(C2=Nc3ccccc3Oc3ccc(Cl)cc32)CC1 [Loxapine-a-2-NB590]
- NanoBRET Fold Response (OPRM1, tracer 0.1μM): 1.06
- NanoBRET Fold Response (OPRM1, tracer 1μM): 1.06

Compound: CN1CCN(C2=Nc3cc(Cl)ccc3N(CC(=O)NCCOCCOCCOCCOCCNC(=O)CCc3ccc4n3[B-](F)(F)[N+]3=C(c5ccc[nH]5)C=CC3=C4)c3ccccc32)CC1 [Clozapine-c-2-NB590]
- NanoBRET Fold Response (OPRM1, 0.1μM tracer): 0.98
- NanoBRET Fold Response (OPRM1, 1μM tracer): 0.94

Compound: CN(C)CCC=C1c2ccccc2CCc2ccc(C(=O)NCCNC(=O)CCOCCOCCOCCOCCNC(=O)CCc3ccc4n3[B-](F)(F)[N+]3=C(c5ccc[nH]5)C=CC3=C4)cc21 [Amitriptyline-a-2-NB590]
- NanoBRET Fold Response (tracer at 0.1μM): 0.95
- NanoBRET Fold Response (tracer at 1μM): 1.10

Compound: Cc1nc2n(c(=O)c1CCN1CCC(c3noc4cc(F)ccc34)CC1)CCCC2OC(=O)NCCOCCOCCOCCOCCNC(=O)CCc1ccc2n1[B-](F)(F)[N+]1=C(c3ccc[nH]3)C=CC1=C2 (stereo not shown) [Risperidone-2-NB590]
- NanoBRET Fold Response (OPRM1, tracer 0.1μM): 0.92
- NanoBRET Fold Response (OPRM1, tracer 1μM): 0.96

Compound: COc1ccc2[nH]c(-c3ccc(CNC(=O)CCOCCOCCOCCOCCNC(=O)CCc4ccc5n4[B-](F)(F)[N+]4=C(c6ccc[nH]6)C=CC4=C5)cc3)c(CCNC(C)=O)c2n1 [AzomelatoninICO9-2-NB590]
- NanoBRET Fold Response (0.1μM tracer): 0.74
- NanoBRET Fold Response (1μM tracer): 0.86

Compound: COc1ccccc1N1CCN(CCCCN2C(=O)c3ccc(CNC(=O)CCOCCOCCOCCOCCNC(=O)CCc4ccc5n4[B-](F)(F)[N+]4=C(c6ccc[nH]6)C=CC4=C5)cc3C2=O)CC1 [NAN-190-2-NB590]
- NanoBRET Fold Response (OPRM1, tracer 0.1μM): 0.96
- NanoBRET Fold Response (OPRM1, tracer 1μM): 1.10

Compound: O=C(CCc1ccc2n1[B-](F)(F)[N+]1=C(c3ccc[nH]3)C=CC1=C2)NCCOCCOCCNC(=O)OCCOCCN1CCN(C2=Nc3ccccc3Sc3ccccc32)CC1 [Quetiapine-a-2-NB590]
- NanoBRET Fold Response (OPRM1, tracer 0.1μM): 0.84
- NanoBRET Fold Response (OPRM1, tracer 1μM): 0.89

Compound: O=C(CCOCCOCCOCCOCCNC(=O)CCc1ccc2n1[B-](F)(F)[N+]1=C(c3ccc[nH]3)C=CC1=C2)NCCCN1CCN(C2=Nc3cc(Cl)ccc3Nc3ccccc32)CC1 [Clozapine-a-2-NB590]
- NanoBRET Fold Response (OPRM1, 0.1μM tracer): 0.98
- NanoBRET Fold Response (OPRM1, 1μM tracer): 1.13

Compound: N#CN=C(NCCCOc1cccc(CN2CCCCC2)c1)NCCNC(=O)CCOCCOCCOCCOCCNC(=O)CCc1ccc2n1[B-](F)(F)[N+]1=C(c3ccc[nH]3)C=CC1=C2 [Aminopotentidine-2-NB590]
- NanoBRET Fold Response (OPRM1, tracer 0.1μM): 1.02
- NanoBRET Fold Response (OPRM1, tracer 1μM): 1.01

Compound: O=C(CCc1ccc2n1[B-](F)(F)[N+]1=C(c3ccc[nH]3)C=CC1=C2)NCc1ccc(C(=O)NCCOCCOCCNCC(O)COc2cccc3ccccc23)cc1 (stereo not shown) [Propranolol-3-NB590]
- NanoBRET Fold Response (OPRM1, 0.1μM): 1.02
- NanoBRET Fold Response (OPRM1, 1μM): 1.21

Compound: O=C(CCc1ccc2n1[B-](F)(F)[N+]1=C(c3ccc[nH]3)C=CC1=C2)NCc1ccc(C(=O)NCCOCCC(=O)N[C@@H]2CC[C@@]3(O)[C@H]4Cc5ccc(O)c6c5[C@@]3(CCN4CC3CC3)[C@H]2O6)cc1 [Naltrexone-3-NB590]
- NanoBRET Fold Response (OPRM1, tracer 0.1μM): 1.59
- NanoBRET Fold Response (OPRM1, tracer 1μM): 1.31

Compound: COc1ccccc1N1CCN(CCCCN2C(=O)c3ccc(CNC(=O)CCOCCNC(=O)c4ccc(CNC(=O)CCc5ccc6n5[B-](F)(F)[N+]5=C(c7ccc[nH]7)C=CC5=C6)cc4)cc3C2=O)CC1 [NAN-190-3-NB590]
- NanoBRET Fold Response (OPRM1, tracer 0.1μM): 1.39
- NanoBRET Fold Response (OPRM1, tracer 1μM): 0.91

Compound: Cc1cc2c(s1)Nc1ccccc1N=C2N1CCN(CCCNC(=O)CCOCCOCCOCCOCCNC(=O)CCc2ccc3n2[B-](F)(F)[N+]2=C(c4ccc[nH]4)C=CC2=C3)CC1 [Olanzapine-a-2-NB590]
- NanoBRET Fold Response (OPRM1, tracer 0.1μM): 0.96
- NanoBRET Fold Response (OPRM1, tracer 1μM): 1.08

Compound: CCCn1c(=O)c2[nH]c(-c3ccc(OCC(=O)NCCNC(=O)CCOCCNC(=O)c4ccc(CNC(=O)CCc5ccc6n5[B-](F)(F)[N+]5=C(c7ccc[nH]7)C=CC5=C6)cc4)cc3)nc2n(CCC)c1=O [XAC-3-NB590]
- NanoBRET Fold Response (OPRM1, tracer 0.1μM): 0.85
- NanoBRET Fold Response (OPRM1, tracer 1μM): 1.02

Compound: N#CN/C(=N\CCNC(=O)c1ccc(N)cc1)NCCCOc1cccc(CN2CCCCC2)c1 [Aminopotentidine (unmodified)]
- NanoBRET Fold Response (OPRM1, other tracers/Aminopotentidine (unmodified), 0.1μM): 1.22
- NanoBRET Fold Response (OPRM1, other tracers/Aminopotentidine (unmodified), 1μM): 0.99

Compound: CN(CCC=C1c2ccccc2CCc2ccccc21)C(=O)CCOCCOCCOCCOCCNC(=O)CCc1ccc2n1[B-](F)(F)[N+]1=C(c3ccc[nH]3)C=CC1=C2 [Amitriptyline-e-2-NB590]
- NanoBRET Fold Response (tracer at 1μM): 1.04

Compound: COc1ccc2c(n1)c(CCNC(C)=O)cn2CCNC(=O)CCc1ccc2n1[B-](F)(F)[N+]1=C(c3ccc[nH]3)C=CC1=C2 [Azamelatonin-1-NB590]
- NanoBRET Fold Response (0.1μM tracer): 1.22
- NanoBRET Fold Response (1μM tracer): 1.22
